Data taken from ChEMBL document CHEMBL5303573, “Mapping human microbiome drug metabolism by gut bacteria and their genes” (Nature, 2019).

settings: akkermansia muciniphila, 12 h, 2 µM
Description: The drug is tested on Akkermansia muciniphila strain: ATCC BAA-835 for biotransformation. The drug concentrations were measured before and after a 12-h incubation by liquid-chromatography-coupled mass spectrometry (LC–MS)

Row | SMILES | Bacterial Biotransformation
1 | C#C[C@]1(OC(C)=O)CC[C@H]2[C@@H]3CCC4=C[C@@H](OC(C)=O)CC[C@@H]4[C@H]3CC[C@@]21C [ETHYNODIOL DIACETATE] | Compound NOT metabolized

assay: The drug is tested on Ruminococcus lactaris strain: ATCC29176 for biotransformation. The drug concentrations were measured before and after a 12-h incubation by liquid-chromatography-coupled mass spectrometry (LC–MS); settings: 2 µM

Row | SMILES | Bacterial Biotransformation
2 | N=C(N)NC(=O)Cc1c(Cl)cccc1Cl [GUANFACINE] | Compound NOT metabolized
3 | C#C[C@]1(OC(C)=O)CC[C@H]2[C@@H]3CCC4=C[C@@H](OC(C)=O)CC[C@@H]4[C@H]3CC[C@@]21C [ETHYNODIOL DIACETATE] | Compound NOT metabolized

assay: The drug is tested on Eubacterium ventriosum strain: ATCC27560 for biotransformation. The drug concentrations were measured before and after a 12-h incubation by liquid-chromatography-coupled mass spectrometry (LC–MS); assay type: ADME; set-up: dose 2 uM, timepoint 0 vs 12 hours; settings: 2 µM

Row | SMILES | Bacterial Biotransformation
4 | C#C[C@]1(OC(C)=O)CC[C@H]2[C@@H]3CCC4=C[C@@H](OC(C)=O)CC[C@@H]4[C@H]3CC[C@@]21C [ETHYNODIOL DIACETATE] | Compound NOT metabolized

settings: roseburia intestinalis, 12 h, 2 µM
Description: The drug is tested on Roseburia intestinalis strain: L1-82 for biotransformation. The drug concentrations were measured before and after a 12-h incubation by liquid-chromatography-coupled mass spectrometry (LC–MS)

Row | SMILES | Bacterial Biotransformation
5 | N=C(N)NC(=O)Cc1c(Cl)cccc1Cl [GUANFACINE] | Compound NOT metabolized
6 | C#C[C@]1(OC(C)=O)CC[C@H]2[C@@H]3CCC4=C[C@@H](OC(C)=O)CC[C@@H]4[C@H]3CC[C@@]21C [ETHYNODIOL DIACETATE] | Compound NOT metabolized

assay: The drug is tested on Providencia rettgeri strain: DSM1131 for biotransformation. The drug concentrations were measured before and after a 12-h incubation by liquid-chromatography-coupled mass spectrometry (LC–MS); assay type: ADME; set-up: dose 2 uM, timepoint 0 vs 12 hours; settings: 2 µM

Row | SMILES | Bacterial Biotransformation
7 | N=C(N)NC(=O)Cc1c(Cl)cccc1Cl [GUANFACINE] | Compound NOT metabolized
8 | C#C[C@]1(OC(C)=O)CC[C@H]2[C@@H]3CCC4=C[C@@H](OC(C)=O)CC[C@@H]4[C@H]3CC[C@@]21C [ETHYNODIOL DIACETATE] | Compound NOT metabolized

assay: The drug is tested on Bacteroides uniformis strain: ATCC8492 for biotransformation. The drug concentrations were measured before and after a 12-h incubation by liquid-chromatography-coupled mass spectrometry (LC–MS); settings: 2 µM

Row | SMILES | Bacterial Biotransformation
9 | N=C(N)NC(=O)Cc1c(Cl)cccc1Cl [GUANFACINE] | Compound NOT metabolized

assay: The drug is tested on Enterococcus faecalis strain: V583 for biotransformation. The drug concentrations were measured before and after a 12-h incubation by liquid-chromatography-coupled mass spectrometry (LC–MS); settings: 2 µM

Row | SMILES | Bacterial Biotransformation
10 | N=C(N)NC(=O)Cc1c(Cl)cccc1Cl [GUANFACINE] | Compound NOT metabolized
11 | C#C[C@]1(OC(C)=O)CC[C@H]2[C@@H]3CCC4=C[C@@H](OC(C)=O)CC[C@@H]4[C@H]3CC[C@@]21C [ETHYNODIOL DIACETATE] | Compound NOT metabolized

settings: segatella copri, 12 h, 2 µM
Description: The drug is tested on Prevotella copri strain: DSM18205 for biotransformation. The drug concentrations were measured before and after a 12-h incubation by liquid-chromatography-coupled mass spectrometry (LC–MS)

Row | SMILES | Bacterial Biotransformation
12 | C#C[C@]1(OC(C)=O)CC[C@H]2[C@@H]3CCC4=C[C@@H](OC(C)=O)CC[C@@H]4[C@H]3CC[C@@]21C [ETHYNODIOL DIACETATE] | Compound NOT metabolized

assay: The drug is tested on Blautia hansenii strain: DSM20583 for biotransformation. The drug concentrations were measured before and after a 12-h incubation by liquid-chromatography-coupled mass spectrometry (LC–MS); settings: 2 µM

Row | SMILES | Bacterial Biotransformation
13 | N=C(N)NC(=O)Cc1c(Cl)cccc1Cl [GUANFACINE] | Compound NOT metabolized
14 | C#C[C@]1(OC(C)=O)CC[C@H]2[C@@H]3CCC4=C[C@@H](OC(C)=O)CC[C@@H]4[C@H]3CC[C@@]21C [ETHYNODIOL DIACETATE] | Compound NOT metabolized

assay: The drug is tested on Bacteroides fragilis strain: HMW615 for biotransformation. The drug concentrations were measured before and after a 12-h incubation by liquid-chromatography-coupled mass spectrometry (LC–MS); settings: 2 µM

Row | SMILES | Bacterial Biotransformation
15 | N=C(N)NC(=O)Cc1c(Cl)cccc1Cl [GUANFACINE] | Compound NOT metabolized
16 | C#C[C@]1(OC(C)=O)CC[C@H]2[C@@H]3CCC4=C[C@@H](OC(C)=O)CC[C@@H]4[C@H]3CC[C@@]21C [ETHYNODIOL DIACETATE] | Compound NOT metabolized

assay: The drug is tested on Ruminococcus torques strain: ATCC27756 for biotransformation. The drug concentrations were measured before and after a 12-h incubation by liquid-chromatography-coupled mass spectrometry (LC–MS); assay type: ADME; set-up: dose 2 uM, timepoint 0 vs 12 hours; settings: 2 µM

Row | SMILES | Bacterial Biotransformation
17 | N=C(N)NC(=O)Cc1c(Cl)cccc1Cl [GUANFACINE] | Compound NOT metabolized
18 | C#C[C@]1(OC(C)=O)CC[C@H]2[C@@H]3CCC4=C[C@@H](OC(C)=O)CC[C@@H]4[C@H]3CC[C@@]21C [ETHYNODIOL DIACETATE] | Compound NOT metabolized

assay: The drug is tested on Dorea formicigenerans strain: ATCC27755 for biotransformation. The drug concentrations were measured before and after a 12-h incubation by liquid-chromatography-coupled mass spectrometry (LC–MS); settings: 2 µM

Row | SMILES | Bacterial Biotransformation
19 | N=C(N)NC(=O)Cc1c(Cl)cccc1Cl [GUANFACINE] | Compound NOT metabolized
20 | C#C[C@]1(OC(C)=O)CC[C@H]2[C@@H]3CCC4=C[C@@H](OC(C)=O)CC[C@@H]4[C@H]3CC[C@@]21C [ETHYNODIOL DIACETATE] | Compound NOT metabolized

assay: The drug is tested on Clostridium sporogenes strain: ATCC15579 for biotransformation. The drug concentrations were measured before and after a 12-h incubation by liquid-chromatography-coupled mass spectrometry (LC–MS); settings: 2 µM

Row | SMILES | Bacterial Biotransformation
21 | N=C(N)NC(=O)Cc1c(Cl)cccc1Cl [GUANFACINE] | Compound NOT metabolized
22 | C#C[C@]1(OC(C)=O)CC[C@H]2[C@@H]3CCC4=C[C@@H](OC(C)=O)CC[C@@H]4[C@H]3CC[C@@]21C [ETHYNODIOL DIACETATE] | Compound NOT metabolized

assay: The drug is tested on Bacteroides xylanisolvens strain: DSM18836 for biotransformation. The drug concentrations were measured before and after a 12-h incubation by liquid-chromatography-coupled mass spectrometry (LC–MS); settings: 2 µM

Row | SMILES | Bacterial Biotransformation
23 | N=C(N)NC(=O)Cc1c(Cl)cccc1Cl [GUANFACINE] | Compound NOT metabolized
24 | C#C[C@]1(OC(C)=O)CC[C@H]2[C@@H]3CCC4=C[C@@H](OC(C)=O)CC[C@@H]4[C@H]3CC[C@@]21C [ETHYNODIOL DIACETATE] | Compound NOT metabolized

assay: The drug is tested on Bifidobacterium ruminantium strain: fecal isolate for biotransformation. The drug concentrations were measured before and after a 12-h incubation by liquid-chromatography-coupled mass spectrometry (LC–MS); settings: 2 µM

Row | SMILES | Bacterial Biotransformation
25 | N=C(N)NC(=O)Cc1c(Cl)cccc1Cl [GUANFACINE] | Compound NOT metabolized
26 | C#C[C@]1(OC(C)=O)CC[C@H]2[C@@H]3CCC4=C[C@@H](OC(C)=O)CC[C@@H]4[C@H]3CC[C@@]21C [ETHYNODIOL DIACETATE] | Compound NOT metabolized

assay: The drug is tested on Odoribacter splanchnicus strain: fecal isolate for biotransformation. The drug concentrations were measured before and after a 12-h incubation by liquid-chromatography-coupled mass spectrometry (LC–MS); settings: 2 µM

Row | SMILES | Bacterial Biotransformation
27 | N=C(N)NC(=O)Cc1c(Cl)cccc1Cl [GUANFACINE] | Compound NOT metabolized
28 | C#C[C@]1(OC(C)=O)CC[C@H]2[C@@H]3CCC4=C[C@@H](OC(C)=O)CC[C@@H]4[C@H]3CC[C@@]21C [ETHYNODIOL DIACETATE] | Compound NOT metabolized

settings: anaerostipes sp., 12 h, 2 µM
Description: The drug is tested on Anaerostipes sp. strain: fecal isolate for biotransformation. The drug concentrations were measured before and after a 12-h incubation by liquid-chromatography-coupled mass spectrometry (LC–MS)

Row | SMILES | Bacterial Biotransformation
29 | N=C(N)NC(=O)Cc1c(Cl)cccc1Cl [GUANFACINE] | Compound NOT metabolized
30 | C#C[C@]1(OC(C)=O)CC[C@H]2[C@@H]3CCC4=C[C@@H](OC(C)=O)CC[C@@H]4[C@H]3CC[C@@]21C [ETHYNODIOL DIACETATE] | Compound NOT metabolized

assay: The drug is tested on Coprococcus comes strain: ATCC27758 for biotransformation. The drug concentrations were measured before and after a 12-h incubation by liquid-chromatography-coupled mass spectrometry (LC–MS); assay type: ADME; set-up: dose 2 uM, timepoint 0 vs 12 hours; settings: 2 µM

Row | SMILES | Bacterial Biotransformation
31 | N=C(N)NC(=O)Cc1c(Cl)cccc1Cl [GUANFACINE] | Compound NOT metabolized
32 | C#C[C@]1(OC(C)=O)CC[C@H]2[C@@H]3CCC4=C[C@@H](OC(C)=O)CC[C@@H]4[C@H]3CC[C@@]21C [ETHYNODIOL DIACETATE] | Compound NOT metabolized

assay: The drug is tested on Bacteroides vulgatus strain: ATCC8482 for biotransformation. The drug concentrations were measured before and after a 12-h incubation by liquid-chromatography-coupled mass spectrometry (LC–MS); settings: phocaeicola vulgatus, 2 µM

Row | SMILES | Bacterial Biotransformation
33 | N=C(N)NC(=O)Cc1c(Cl)cccc1Cl [GUANFACINE] | Compound NOT metabolized
34 | C#C[C@]1(OC(C)=O)CC[C@H]2[C@@H]3CCC4=C[C@@H](OC(C)=O)CC[C@@H]4[C@H]3CC[C@@]21C [ETHYNODIOL DIACETATE] | Compound NOT metabolized
